{
  "source": "patent US9840494B2",
  "about": "“Quinazoline derivative” (Tianjin Hemay Oncology Pharmaceutical Co., Ltd., priority 2013, dated 2017)",
  "key": {"[1]": {"tested_on": "A431 human epidermal carcinoma xenograft", "experiment": "A431 human epidermal carcinoma xenograft model", "assay_type": "in vivo, nude mice", "conditions": "for Tumor Weight (x ± S.D.) / Tumor Inhibitor Rate / Relative Tumor Volume (x ± S.D.) / T/C / Tumor Volume (x ± S.D.): A431 xenograft; for Tumor Inhibitor Rate: by tumor weight; for Relative Tumor Volume (x ± S.D.) / T/C / Tumor Volume (x ± S.D.): end of the assay", "protocol": "Tumor cells were cultured in an incubator at 37° C. with 5% CO2 using MEM medium containing 10% inactivated fetal calf serum, 100 U/ml penicillin and 100 µg/ml streptomycin. The tumor cells in logarithmic growth phase were collected, adjusted to an appropriate density and injected subcutaneously into nude mice (0.2 ml per mouse). An xenograft model was established after a tumor was formed in the nude mice and passaged in vivo for more than three generations.\nThe above-mentioned tumor-bearing mice were sacrificed by cervical dislocation. The tumor was taken out and cut into small tumor pieces (about 2 mm×2 mm×2 mm) under sterile conditions. The small tumor pieces were inoculated subcutaneously into nude mice with a trocar. […] The animals in each group were subjected to intragastric administration once a day for 14 consecutive days. The day of grouping is assigned as day 0.\n(§1) Tumor volume is calculated as: volume =0.5×long diameter×short diameter^2. The relative tumor volume (RTV) was calculated based on the measurements as: RTV=Vt/V0, wherein V0 is the tumor volume measured when the animals were grouped to be administrated (i.e., d0), and Vt is the tumor volume when each measurement was taken. Relative tumor proliferation rate T/C was calculated based on relative tumor volume, in which T is the mean value of the relative tumor volume of the treatment group, and C is the mean value of the relative tumor volume of the solvent control group. T/C was calculated as follows: T/C=TRTV/CRTV×100% (TRTV: RTV of the treatment group; CRTV:\nRTV of the solvent control group) Inhibition rate (%)=(mean tumor weight of the solvent control group−mean tumor weight of the treatment group)/mean tumor weight of the solvent control group×100%. Percentage of body weight change=Wn/W0×100% (Wn: mean body weight of experimental animals in each group at day n, W0: mean body weight of experimental animals in each group at day 0).\n(§2) One-Way ANOVA test was conducted in SPSS13.0, performing statistical analysis between groups."}, "[2]": {"tested_on": "HCC827 human non-small cell lung cancer xenograft", "experiment": "HCC827 human non-small cell lung cancer xenograft model", "assay_type": "in vivo, nude mice", "conditions": "for Tumor Weight (x ± S.D.) / Tumor Inhibitor Rate / Relative Tumor Volume (x ± S.D.) / T/C / Tumor Volume (x ± S.D.): HCC827 xenograft; for Tumor Inhibitor Rate: by tumor weight; for Relative Tumor Volume (x ± S.D.) / T/C / Tumor Volume (x ± S.D.): end of the assay", "protocol": "Tumor cells were cultured in an incubator at 37° C. with 5% CO2 using MEM medium containing 10% inactivated fetal calf serum, 100 U/ml penicillin and 100 μg/ml streptomycin. The tumor cells in logarithmic growth phase were collected, adjusted to an appropriate density and injected subcutaneously into nude mice (0.2 ml per mouse). An xenograft model was established after a tumor was formed in the nude mice and passaged in vivo for more than three generations.\nThe above-mentioned tumor-bearing mice were sacrificed by cervical dislocation. The tumor was taken out and cut into small tumor pieces (about 2 mm×2 mm×2 mm) under sterile conditions. The small tumor pieces were inoculated subcutaneously into nude mice on the right shoulder blade with a trocar. […] The animals in each group were subjected to intragastric administration daily for 14 consecutive days. The day of grouping is assigned as day 0.\nas §1, with “volume=0.5×long” for “volume =0.5×long”, “CRTV: RTV of the solvent control group) Inhibition rate (%)=(mean tumor weight of the solvent control group−mean tumor weight of the treatment group)/mean tumor weight of the solvent control group x 100%. Percentage of body weight change=Wn/W0×100% (Wn: mean body weight of experimental animals in each group at day n, W0: mean body weight of experimental animals in each group at day 0).” for “CRTV:”\nas §2"}, "[3]": {"experiment": "MTD assay, single administration to mice", "assay_type": "in vivo", "conditions": "ICR male mice, tail intravenous administration, 14 days", "text": "MTD Assay for a Single […] to Mice\n1. Experimental Animals: ICR male mice, weighing 19-22 g, were purchased from Beijing Vital River Laboratory Animal Technology Co., Ltd., Animal License No. SCXK (Beijing) 2007-0001\n2. Experimental Scheme: 21 mice were divided into nine groups: groups I, IV and VI referred to one mouse per group, groups II, V and IIX referred to four mice per group, and group III, VI and IX referred to two mice per group. Compound 4, compound 2 and compound 12 were dissolved in water for injection. Groups I-III were subjected to tail intravenous administration of compound 4 (N-[4-(3-chloro-4-fluorophenylamino)-7-(2-methoxyethoxy)quinazolin-6yl]-2-[piperidin-4-ylidene]acetamide dihydrochloride) at doses of 100 mg/kg, 150 mg/kg, and 200 mg/kg, respectively. The animal response and the weight change were observed after administration, and these animals were sacrificed after 14 days for anatomical observation. Groups IV-VI were subjected to tail intravenous administration of compound 2 (N-[4-(3-chloro-4-fluorophenylamino)-7-(2-methoxyethoxy)quinazolin-6yl]-2-[1-(2-methoxyethyl)piperidin-4-ylidene]acetamide dihydrochloride) at doses of 100 mg/kg, 150 mg/kg, and 200 mg/kg, respectively. The animal response and the weight change were observed after administration, and these animals were sacrificed after 14 days for anatomical observation. Groups VII-IX were subjected to tail intravenous administration of compound 12 (N-[4-(3-ethynylphenylamino-7-(2-ethoxy)quinazolin-6yl]-2-[1-methylpiperidin-4-ylidene]acetamide dihydrochloride) at doses of 100 mg/kg, 150 mg/kg, and 200 mg/kg, respectively. The animal response and the weight change were observed after administration, and these animals were sacrificed after 14 days for anatomical observation."}, "[4]": {"conditions": "A431 xenograft nude mice, 20, 40 and 80 mg/kg intragastric once a day for 14 days"}, "[5]": {"conditions": "20 mg/kg intragastric once a day for 14 days"}, "[6]": {"conditions": "40 mg/kg intragastric once a day for 14 days"}, "[7]": {"conditions": "80 mg/kg intragastric once a day for 14 days"}, "[8]": {"conditions": "HCC827 xenograft nude mice, 20, 40 and 80 mg/kg intragastric daily for 14 days"}, "[9]": {"conditions": "20 mg/kg intragastric daily for 14 days"}, "[10]": {"conditions": "40 mg/kg intragastric daily for 14 days"}, "[11]": {"conditions": "80 mg/kg intragastric daily for 14 days"}},
  "note": "Marks after values point to notes of the source that are not given here.",
  "data": [
    {"smiles": "COCCOc1cc2ncnc(Nc3ccc(F)c(Cl)c3)c2cc1NC(=O)C=C1CCN(CCOC)CC1.CS(=O)(=O)O", "note": "[Compound 3, N-[4-(3-chloro-4-fluorophenylamino)-7-(2-methoxyethoxy)quinazolin-6-yl]-2-[1-(2-methoxyethyl)piperidin-4-ylidene]acetamide dimethylsulfonate]", "values": [
      {"measurement": "Body weights of the experimental animals", "setting": "[1]; [4]", "value": "not significantly reduced"},
      {"measurement": "abnormality in the experimental animals", "setting": "[1]; [4]", "value": "no significant abnormality was observed"},
      {"measurement": "Tumor Weight (x ± S.D.)", "setting": "[1]; [5]", "value": "0.232 ± 0.312", "unit": "g"},
      {"measurement": "Tumor Inhibitor Rate", "setting": "[1]; [5]", "value": 68.6, "unit": "%"},
      {"measurement": "Relative Tumor Volume (x ± S.D.)", "setting": "[1]; [5]", "value": "2.3 ± 1.5"},
      {"measurement": "T/C", "setting": "[1]; [5]", "value": 30.6, "unit": "%"},
      {"measurement": "Tumor Volume (x ± S.D.)", "setting": "[1]; [5]", "value": "424.9 ± 434.0*** mm^3"},
      {"measurement": "Tumor Weight (x ± S.D.)", "setting": "[1]; [6]", "value": "0.199 ± 0.153", "unit": "g"},
      {"measurement": "Tumor Inhibitor Rate", "setting": "[1]; [6]", "value": 73.2, "unit": "%"},
      {"measurement": "Relative Tumor Volume (x ± S.D.)", "setting": "[1]; [6]", "value": "2.8 ± 2.3"},
      {"measurement": "T/C", "setting": "[1]; [6]", "value": 37.7, "unit": "%"},
      {"measurement": "Tumor Volume (x ± S.D.)", "setting": "[1]; [6]", "value": "418.9 ± 284.7*** mm^3"},
      {"measurement": "Tumor Weight (x ± S.D.)", "setting": "[1]; [7]", "value": "0.107 ± 0.126", "unit": "g"},
      {"measurement": "Tumor Inhibitor Rate", "setting": "[1]; [7]", "value": 85.6, "unit": "%"},
      {"measurement": "Relative Tumor Volume (x ± S.D.)", "setting": "[1]; [7]", "value": "1.4 ± 0.9"},
      {"measurement": "T/C", "setting": "[1]; [7]", "value": 19.1, "unit": "%"},
      {"measurement": "Tumor Volume (x ± S.D.)", "setting": "[1]; [7]", "value": "254.7 ± 228.2*** mm^3"},
      {"measurement": "Body weights of the experimental animals", "setting": "[2]; [8]", "value": "not significantly reduced"},
      {"measurement": "abnormality in the experimental animals", "setting": "[2]; [8]", "value": "no significant abnormality was observed"},
      {"measurement": "Tumor Weight (x ± S.D.)", "setting": "[2]; [9]", "value": "0.045 ± 0.074", "unit": "g"},
      {"measurement": "Tumor Inhibitor Rate", "setting": "[2]; [9]", "value": 91.7, "unit": "%"},
      {"measurement": "Relative Tumor Volume (x ± S.D.)", "setting": "[2]; [9]", "value": "0.36 ± 0.45"},
      {"measurement": "T/C", "setting": "[2]; [9]", "value": 5.0, "unit": "%"},
      {"measurement": "Tumor Volume (x ± S.D.)", "setting": "[2]; [9]", "value": "57.3 ± 77.6*** mm^3"},
      {"measurement": "Tumor Weight (x ± S.D.)", "setting": "[2]; [10]", "value": "0.026 ± 0.026", "unit": "g"},
      {"measurement": "Tumor Inhibitor Rate", "setting": "[2]; [10]", "value": 95.2, "unit": "%"},
      {"measurement": "Relative Tumor Volume (x ± S.D.)", "setting": "[2]; [10]", "value": "0.13 ± 0.10"},
      {"measurement": "T/C", "setting": "[2]; [10]", "value": 1.8, "unit": "%"},
      {"measurement": "Tumor Volume (x ± S.D.)", "setting": "[2]; [10]", "value": "18.4 ± 11.6*** mm^3"},
      {"measurement": "Tumor Weight (x ± S.D.)", "setting": "[2]; [11]", "value": "0.014 ± 0.013", "unit": "g"},
      {"measurement": "Tumor Inhibitor Rate", "setting": "[2]; [11]", "value": 97.4, "unit": "%"},
      {"measurement": "Relative Tumor Volume (x ± S.D.)", "setting": "[2]; [11]", "value": "0.13 ± 0.04"},
      {"measurement": "T/C", "setting": "[2]; [11]", "value": 1.8, "unit": "%"},
      {"measurement": "Tumor Volume (x ± S.D.)", "setting": "[2]; [11]", "value": "20.9 ± 8.6*** mm^3"}
    ]},
    {"smiles": "COCCOc1cc2ncnc(Nc3ccc(F)c(Cl)c3)c2cc1NC(=O)C=C1CCN(CCOC)CC1.Cl.Cl", "note": "[Compound 2, N-[4-(3-chloro-4-fluorophenylamino)-7-(2-methoxyethoxy)quinazolin-6yl]-2-[1-(2-methoxyethyl)piperidin-4-ylidene]acetamide dihydrochloride]", "values": [
      {"measurement": "Mortality", "setting": "[3]; 100 mg/kg, 1 animal", "value": 0, "unit": "%"},
      {"measurement": "Number of Deaths", "setting": "[3]; 100 mg/kg, 1 animal", "value": 0},
      {"measurement": "Mortality", "setting": "[3]; 150 mg/kg, 4 animals", "value": 0, "unit": "%"},
      {"measurement": "Number of Deaths", "setting": "[3]; 150 mg/kg, 4 animals", "value": 0},
      {"measurement": "Mortality", "setting": "[3]; 200 mg/kg, 2 animals", "value": 0, "unit": "%"},
      {"measurement": "Number of Deaths", "setting": "[3]; 200 mg/kg, 2 animals", "value": 0}
    ]}
  ]
}
